Measurements taken from PubChem BioAssay (NCI).
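Five concentrations, 48 hours, 96-well plates. Definition used: TGI = concentration required for complete inhibition of growth.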

Assays:
Experiment in all cases: NCI-60 cell line screen, 48 h
786-0 renal = system: 786-0 renal
A498 renal = system: A498 renal
A549 NSCLC = system: A549 NSCLC
ACHN renal = system: ACHN renal
BT-549 breast = system: BT-549 breast
CAKI-1 renal = system: CAKI-1 renal
CCRF-CEM leukemia = system: CCRF-CEM leukemia
COLO 205 colon = system: COLO 205 colon
DU-145 prostate = system: DU-145 prostate
EKVX NSCLC = system: EKVX NSCLC
HCC-2998 colon = system: HCC-2998 colon
HCT-116 colon = system: HCT-116 colon
HCT-15 colon = system: HCT-15 colon
HL-60(TB) leukemia = system: HL-60(TB) leukemia
HOP-92 NSCLC = system: HOP-92 NSCLC
HS 578T breast = system: HS 578T breast
HT29 colon = system: HT29 colon
IGROV1 ovarian = system: IGROV1 ovarian
K-562 leukemia = system: K-562 leukemia
KM12 colon = system: KM12 colon
LOX IMVI melanoma = system: LOX IMVI melanoma
M14 melanoma = system: M14 melanoma
MALME-3M melanoma = system: MALME-3M melanoma
MCF7 breast = system: MCF7 breast
MDA-MB-231 breast = system: MDA-MB-231 breast
MDA-MB-435 = system: MDA-MB-435
MDA-N = system: MDA-N
MOLT-4 leukemia = system: MOLT-4 leukemia
NCI-H226 lung = system: NCI-H226 lung
NCI-H23 lung = system: NCI-H23 lung
NCI-H460 lung = system: NCI-H460 lung
NCI-H522 lung = system: NCI-H522 lung
NCI/ADR-RES ovarian = system: NCI/ADR-RES ovarian
OVCAR-3 ovarian = system: OVCAR-3 ovarian
OVCAR-4 ovarian = system: OVCAR-4 ovarian
OVCAR-5 ovarian = system: OVCAR-5 ovarian
OVCAR-8 ovarian = system: OVCAR-8 ovarian
PC-3 prostate = system: PC-3 prostate
RPMI-8226 leukemia = system: RPMI-8226 leukemia
SF-268 CNS = system: SF-268 CNS
SF-295 CNS = system: SF-295 CNS
SF-539 CNS = system: SF-539 CNS
SK-MEL-2 melanoma = system: SK-MEL-2 melanoma
SK-MEL-28 melanoma = system: SK-MEL-28 melanoma
SK-MEL-5 melanoma = system: SK-MEL-5 melanoma
SK-OV-3 ovarian = system: SK-OV-3 ovarian
SN12C renal = system: SN12C renal
SNB-19 CNS = system: SNB-19 CNS
SW-620 colon = system: SW-620 colon
T-47D breast = system: T-47D breast
TK-10 renal = system: TK-10 renal
U251 CNS = system: U251 CNS
UACC-257 melanoma = system: UACC-257 melanoma
UACC-62 melanoma = system: UACC-62 melanoma
UO-31 renal = system: UO-31 renal
HOP-62 NSCLC = system: HOP-62 NSCLC
RXF 393 renal = system: RXF 393 renal
SNB-75 CNS = system: SNB-75 CNS
SR leukemia = system: SR leukemia

Measured: TGI

Cc1ccccc1NC(=O)C(=O)Cc1cnc2ccccc2n1
not listed: HOP-62 NSCLC | RXF 393 renal | SNB-75 CNS | SR leukemia
> 100 µM: all other assays above

NC(N)=N/N=C/c1ccc(O)c(C(=O)O)c1
not listed: EKVX NSCLC | HL-60(TB) leukemia | SN12C renal
> 100 µM: all other assays above

CNC(=O)OCCN1c2ccccc2Sc2ccccc21
89.5 µM: MDA-MB-231 breast
89.2 µM: HOP-62 NSCLC
99.2 µM: RXF 393 renal
not listed: RPMI-8226 leukemia | SK-MEL-2 melanoma | SNB-75 CNS
> 100 µM: all other assays above

O=C(NNC(=O)c1ccccc1Cl)c1ccccc1O
77.1 µM: NCI-H226 lung
99.2 µM: NCI-H522 lung
not listed: ACHN renal | HCC-2998 colon | HL-60(TB) leukemia | HOP-92 NSCLC | NCI-H23 lung
> 100 µM: all other assays above
